Assay results: patent publication US10406239B2, “Water-soluble docetaxel anticancer drug compound and preparation method and use thereof” (NANJING YOUYI MEDICAL TECHNOLOGY CO., LTD, priority 2015, dated 2019)
Marks after values point to notes of the source that are not given here.

What was measured:
[1] = tested on: A549 human lung cancer xenografts; assay: Growth inhibition on A549 human lung cancer xenografts in nude mice; format: in vivo, BALB/c nude mice; conditions: for Tumor inhibition rate: by tumor weight
Protocol: (§1) The dose volume was 0.4 ml per 20 g, that is, the dose was 96 mg/kg. Then, the solution was diluted to other desired concentrations with 0.9% sodium chloride solution.
(§2) Docetaxel injection, manufactured by Jiangsu Hengrui Pharmaceutical Co., Ltd., lot number: 15011215, specification: 0.5 ml: 20 mg. Formulation method: during use, 20 mg of docetaxel injection of the above specification was added to 1.5 ml of a solvent for the docetaxel injection to give a concentration of 10 mg/ml, and then fully diluted with saline to 1 mg/ml. The dose volume was 0.2 ml per 20 g, that is, the dose was 10 mg/kg.
(§3) BALB/c nude mice, provided by Changzhou Kavens Laboratory Animal Co., Ltd. (Experimental Animal Production License: SOCK (Su) 2011-0003), age: 35-40 days, weight: 18-24 g, female.
A549 human lung cancer xenografts in nude mice was established by inoculating human lung cancer A549 cell line subcutaneously to the axillary fossa of nude mice in an amount of 2*10^6 cells/animal.
(§4) Human lung cancer A549 cell line in logarithmic growth phase was prepared into a cell suspension of 1×10^8 cells/ml under aseptic conditions and subcutaneously inoculated to the right axillary fossa of nude mice in a volume of 0.1 ml. The size of the xenograft in the nude mice was measured with a vernier caliper. After the xenografts grew to 100-300 mm^3, the animals were randomly grouped. The anti-tumor effect of the test agents was dynamically observed by measuring the size of the xenografts. The size of the xenografts was measured once every 3 days. The dose volume was 0.4 ml/20 g. Twenty-one days later, the mice were sacrificed and the tumors were surgically excised and weighed. The tumor volume (TV) is calculated by a formula below: TV=½×a×b^2
The relative tumor volume (RTV) is calculated based on the measurements by a formula: RTV=Vt/V0, where V0 is the measured tumor volume upon being caged (i.e., d0) and Vt is the tumor volume at each measurement. The evaluation index of the anti-tumor activity is relative tumor growth rate T/C (%), which is calculated by a formula below: […]
in which TRTV is the RTV of the treatment group; and CRTV is the RTV of the negative control group.
The tumor inhibition rate is calculated by a formula below: […]
Tweight is the average tumor weight of the treatment group; and Cweight is the average tumor weight of the negative control group.

[2] = Effect on body weight of nude mice with A549 human lung cancer xenografts; format: in vivo, BALB/c nude mice
Protocol: as §1, §2, §3, §4

[3] = background statement; cited from earlier work
[4] = background statement; cited from earlier work; remark: listed apart in the source
[5] = Docetaxel 10 mg/kg, tail vein, once every 3 days, 7 doses, 21 d
[6] = Docetaxel 10 mg/kg, tail vein, once every 3 days, 3 d
[7] = Docetaxel 10 mg/kg, tail vein, once every 3 days, 6 d
[8] = Docetaxel 10 mg/kg, tail vein, once every 3 days, 9 d
[9] = Docetaxel 10 mg/kg, tail vein, once every 3 days, 12 d
[10] = Docetaxel 10 mg/kg, tail vein, once every 3 days, 15 d
[11] = Docetaxel 10 mg/kg, tail vein, once every 3 days, 18 d

CC(=O)O[C@@]12CO[C@@H]1C[C@H](O)[C@@]1(C)C(=O)[C@H](O)C3=C(C)[C@@H](OC(=O)[C@H](O)[C@@H](NC(=O)OC(C)(C)C)c4ccccc4)C[C@@](O)([C@@H](OC(=O)c4ccccc4)[C@H]21)C3(C)C [Docetaxel]
Tumor volume ([1]; Docetaxel 10 mg/kg group, 0 d (baseline)): 100.58 ± 20.87 mm^3 | Tumor inhibition rate ([1]; Docetaxel 10 mg/kg, once every 3 days, 7 doses): 72.16% | Tumor inhibition rate ([1]; Docetaxel 10 mg/kg, once every 3 days, 7 doses, listed as docetaxel): 72.16% | Tumor weight ([1]; Docetaxel 10 mg/kg, once every 3 days, tumors excised after 21 days): 0.33 ± 0.15 g | RTV (relative tumor volume) [1, 5]: 2.40 ± 0.99 | T/C (relative tumor growth rate) [1, 5]: 21.15% | Tumor volume [1, 5]: 226.65 ± 56.45* mm^3 | T/C (relative tumor growth rate) ([1]; Docetaxel 10 mg/kg, tail vein, once every 3 days, 7 doses, 21 d, listed as docetaxel): 21.15% | RTV (relative tumor volume) [1, 6]: 1.62 ± 0.37 | T/C (relative tumor growth rate) [1, 6]: 56.09% | Tumor volume [1, 6]: 157.30 ± 26.48** mm^3 | RTV (relative tumor volume) [1, 7]: 1.49 ± 0.39 | T/C (relative tumor growth rate) [1, 7]: 41.39% | Tumor volume [1, 7]: 147.47 ± 41.99** mm^3 | RTV (relative tumor volume) [1, 8]: 1.59 ± 0.47 | T/C (relative tumor growth rate) [1, 8]: 34.23% | Tumor volume [1, 8]: 155.55 ± 44.12** mm^3 | RTV (relative tumor volume) [1, 9]: 2.15 ± 0.81 | T/C (relative tumor growth rate) [1, 9]: 33.77% | Tumor volume [1, 9]: 208.93 ± 68.26** mm^3 | RTV (relative tumor volume) [1, 10]: 2.24 ± 0.43 | T/C (relative tumor growth rate) [1, 10]: 26.80% | Tumor volume [1, 10]: 224.22 ± 57.63** mm^3 | RTV (relative tumor volume) [1, 11]: 1.87 ± 0.28 | T/C (relative tumor growth rate) [1, 11]: 19.30% | Tumor volume [1, 11]: 186.80 ± 42.03** mm^3 | effect on the body weight of the experimental mice (in words) ([2]; 10 mg/kg docetaxel, P<0.01): Extremely significant effect | Initial body weight ([2]; Docetaxel 10 mg/kg group, before dosing): 22.50 ± 1.26 g | Final body weight ([2]; Docetaxel 10 mg/kg, once every 3 days, end of study (21 days)): 15.17 ± 0.90 g | oral bioavailability [3]: less than 8% | intracellular concentration higher than that of paclitaxel [4]: 3 times
